Data published in US20250101025A1, “NOVEL PLK1 DEGRADATION INDUCING COMPOUND” (UPPTHERA, INC., priority 2021, published 2025).
Where two headings read alike, the source gives them in different places.

Tests used:
Format in all cases: cell-based
MRC-5 cell line = test: Cell viability assay for MRC-5 cell line (EZ-Cytox cytotoxicity experiment); settings: Homo sapiens, MRC5, 120 h, MRC-5 normal cell line, 5 days
Description: 4. Cell Viability Assay for MRC-5 Cell Line
(1) Culture of MRC-5 Cell Line
Passage of cultured cells was maintained within P15.
(2) Treatment of Compounds of the Present Invention
Then, it was cultured in 37° C.
(3) Cytotoxicity Experiment
CO2 incubator for 4 hours.

PLK1 = molecular target: T1, PLK1 (Homo sapiens, UniProt P53350); test: Luciferase assay for PLK1 in HeLa LgBit (Plk1-HiBit KI) cell line; settings: compound 300 nM, luminescence after 9 hours
T1 construct: endogenous in cells; host or cells: HeLa LgBit (Plk1-HiBit KI): HeLa stably expressing LgBit, with HiBit knocked in at the endogenous Plk1 locus by CRISPR/Cas9
Outline: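 HeLa cells stably expressing LgBit, with HiBit knocked in at the endogenous Plk1 C-terminus, synchronized by 2 mM thymidine block for 24 h, then released and cultured 18 h. Compound added at 300 nM with Endurazine substrate; luminescence tracked in real time and expressed as ratio to DMSO.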

H526 cell line = test: Cell viability assay for NCI-H526 cell line (EZ-Cytox); settings: Homo sapiens, NCI-H526, 120 h; H526 cells, 3-fold dilutions 3000 nM to 0.46 nM, 5 days
Outline: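 NCI-H526 cells were exposed to compound in CO2 incubator culture for 5 days. Viability was read by EZ-Cytox absorbance at 450 nm after 3 min shaking, giving IC50 values.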

[1] = highest concentration 10000 nM, N.D. = no cytotoxicity until 10 μM, read-out: Activity: IC50 value to MRC-5 cell line, N.D. cells
[2] = 3-fold dilutions 10000 nM to 1.52 nM, Exemplary Compounds, numeric values, read-out: Activity: IC50 value (nM) to MRC-5 cell line

T1 sequence (P53350 whole entry): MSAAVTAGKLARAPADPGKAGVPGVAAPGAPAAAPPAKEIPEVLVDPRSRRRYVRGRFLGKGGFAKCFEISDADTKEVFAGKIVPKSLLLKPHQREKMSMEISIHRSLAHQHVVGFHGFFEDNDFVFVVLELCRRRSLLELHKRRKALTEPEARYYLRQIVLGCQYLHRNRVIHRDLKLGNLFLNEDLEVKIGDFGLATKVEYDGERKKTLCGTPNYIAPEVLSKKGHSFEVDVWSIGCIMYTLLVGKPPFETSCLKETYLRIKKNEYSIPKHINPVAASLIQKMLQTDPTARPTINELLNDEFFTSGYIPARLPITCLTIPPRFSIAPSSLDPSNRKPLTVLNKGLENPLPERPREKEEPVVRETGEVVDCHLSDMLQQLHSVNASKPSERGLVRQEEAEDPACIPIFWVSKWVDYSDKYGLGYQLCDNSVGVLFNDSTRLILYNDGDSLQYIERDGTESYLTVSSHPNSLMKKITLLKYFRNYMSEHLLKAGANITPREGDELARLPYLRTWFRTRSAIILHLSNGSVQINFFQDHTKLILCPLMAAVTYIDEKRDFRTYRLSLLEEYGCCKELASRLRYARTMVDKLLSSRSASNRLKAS

Activity: ratio of the luminescence value of each Exemplary Compound treatment group to DMSO treatment group (PLK1)	SMILES	IC50 (MRC-5 cell line; [1]) [nM]	IC50 (H526 cell line) [µM]	IC50 (MRC-5 cell line; [2]) [nM]
++ (++<0.6)	COc1cc(C(=O)NN2CCC(N3CC4(CCN(c5ccc(NC6CCC(=O)NC6=O)cc5F)CC4)C3)CC2)ccc1Nc1ncc2c(n1)N(C(C)C)CC(F)(F)C(=O)N2C (stereo not drawn) [Compound 32, 4-((7,7-difluoro-9-isopropyl-5-methyl-6-oxo-6,7,8,9-tetrahydro-5H-pyrimido[4,5-b][1,4]diazepin-2-yl)amino)-N-(4-(7-(4-((2,6-dioxopiperidin-3-yl)amino)-2-fluorophenyl)-2,7-diazaspiro[3.5]nonan-2-yl)piperidin-1-yl)-3-methoxybenzamide]	> 10000	< 0.05	
++ (++<0.6)	COc1cc(C(=O)NN2CCC(N3CC4(CCN(c5ccc(N(C)C6CCC(=O)NC6=O)cc5F)CC4)C3)CC2)ccc1Nc1ncc2c(n1)N(C(C)C)CC(F)(F)C(=O)N2C (stereo not drawn) [Compound 33, 4-((7,7-difluoro-9-isopropyl-5-methyl-6-oxo-6,7,8,9-tetrahydro-5H-pyrimido[4,5-b][1,4]diazepin-2-yl)amino)-N-(4-(7-(4-((2,6-dioxopiperidin-3-yl)(methyl)amino)-2-fluorophenyl)-2,7-diazaspiro[3.5]nonan-2-yl)piperidin-1-yl)-3-methoxybenzamide]		< 0.05	25000
+++ (+++: <0.3)	COc1cc(C(=O)NC2CCC(N(C)CC3CCN(c4ccc(NC5CCC(=O)NC5=O)cc4F)CC3)CC2)ccc1Nc1ncc2c(n1)N(C1CCCC1)CC(F)(F)C(=O)N2C (stereo not drawn) [Compound 34, 4-((9-cyclopentyl-7,7-difluoro-5-methyl-6-oxo-6,7,8,9-tetrahydro-5H-pyrimido[4,5-b][1,4]diazepin-2-yl)amino)-N-((1r,4r)-4-(((1-(4-((2,6-dioxopiperidin-3-yl)amino)-2-fluorophenyl)piperidin-4-yl)methyl)(methyl)amino)cyclohexyl)-3-methoxybenzamide]	> 10000	< 0.03	
+++ (+++: <0.3)	COc1cc(C(=O)NC2CC3(CCN(CC4CCN(c5ccc(OC6CCC(=O)NC6=O)cc5F)CC4)CC3)C2)ccc1Nc1ncc2c(n1)N(C(C)C)CC(F)(F)C(=O)N2C (stereo not drawn) [Compound 35, 4-((7,7-difluoro-9-isopropyl-5-methyl-6-oxo-6,7,8,9-tetrahydro-5H-pyrimido[4,5-b][1,4]diazepin-2-yl)amino)-N-(7-((1-(4-((2,6-dioxopiperidin-3-yl)oxy)-2-fluorophenyl)piperidin-4-yl)methyl)-7-azaspiro[3.5]nonan-2-yl)-3-methoxybenzamide]		< 0.05	16900
+++ (+++: <0.3)	COc1cc(C(=O)NC2CC3(CCN(CC4CCN(c5ccc(OC6CCC(=O)NC6=O)cc5)CC4)CC3)C2)ccc1Nc1ncc2c(n1)N(C(C)C)CC(F)(F)C(=O)N2C (stereo not drawn) [Compound 36, 4-((7,7-difluoro-9-isopropyl-5-methyl-6-oxo-6,7,8,9-tetrahydro-5H-pyrimido[4,5-b][1,4]diazepin-2-yl)amino)-N-(7-((1-(4-((2,6-dioxopiperidin-3-yl)oxy)phenyl)piperidin-4-yl)methyl)-7-azaspiro[3.5]nonan-2-yl)-3-methoxybenzamide]		< 0.03	9800
++ (++<0.6)	COc1cc(C(=O)NC2CCN(CCC3CCN(c4cccc5c4n(C)c(=O)n5C4CCC(=O)NC4=O)CC3)CC2)ccc1Nc1ncc2c(n1)N(C1CCCC1)CC(F)(F)C(=O)N2C (stereo not drawn) [Compound 37, 4-((9-cyclopentyl-7,7-difluoro-5-methyl-6-oxo-6,7,8,9-tetrahydro-5H-pyrimido[4,5-b][1,4]diazepin-2-yl)amino)-N-(1-(2-(1-(1-(2,6-dioxopiperidin-3-yl)-3-methyl-2-oxo-2,3-dihydro-1H-benzo[d]imidazol-4-yl)piperidin-4-yl)ethyl)piperidin-4-yl)-3-methoxybenzamide]	> 10000	< 0.05	
++ (++<0.6)	COc1cc(C(=O)NC2CC3(CCN(CC4CCN(c5cccc6c5n(C)c(=O)n6C5CCC(=O)NC5=O)CC4)CC3)C2)ccc1Nc1ncc2c(n1)N(C(C)C)CC(F)(F)C(=O)N2C (stereo not drawn) [Compound 38, 4-((7,7-difluoro-9-isopropyl-5-methyl-6-oxo-6,7,8,9-tetrahydro-5H-pyrimido[4,5-b][1,4]diazepin-2-yl)amino)-N-(7-((1-(1-(2,6-dioxopiperidin-3-yl)-3-methyl-2-oxo-2,3-dihydro-1H-benzo[d]imidazol-4-yl)piperidin-4-yl)methyl)-7-azaspiro[3.5]nonan-2-yl)-3-methoxybenzamide]		< 0.03	3960
